Structures can show the parent of a compound that is named as a salt. Where two headings read alike, the source gives them in different places.
How the values were obtained:
[1] = tested on: adenovirus; conditions: cited from earlier work
[2] = tested on: human corona virus; conditions: cited from earlier work
[3] = tested on: influenza viruses; conditions: cited from earlier work
[4] = tested on: ICAM-1; conditions: treated cells; cited from earlier work
[5] = tested on: rhinovirus; conditions: in particular human tracheal epithelial cells, rhinovirus group 14; cited from earlier work
[6] = tested on: rhinovirus; test: Blocking of rhinovirus infection of epithelial cells; effective inhibitory concentrations (Tables 1 and 2, FIG. 3); type: cell-based
Excerpt: (§1) Rhinovirus capable of viral replication causes the release of the pro-inflammatory […] chemokines, IP-10 and RANTES from infected epithelial cells.
(§2) For purposes of illustration, the effects of targeted delivery as opposed to systemic delivery of a representative anti-malarial, hydroxychloroquine, for prevention of rhinovirus infection is compared. As shown in Tables 1 and 2 and in FIG. 3, the effective inhibitory concentrations of this agent ranges from about 50 to 1000 microM (or about 20 to 400 micrograms/ml). Safe oral dosing of anti-malarials, such as chloroquine and hydroxychloroquine yields serum levels far below these ranges: 0.6 to 0.9 microM for chloroquine and 1.4 to 1.5 microM for hydroxychloroquine (MacKenzie, A H, “Pharmacologic actions of the 4-aminoquinoline compounds”, Am J Med, 1983, July: 5-10). Moreover, the inventor has noted that oral or systemic administration of HCQ cannot provide adequate plasma levels of HCQ to achieveefficacious results. Even at doses nearly twice that used in humans, peak serum concentrations following intravenous of administration of 10 mg/kg HCQ in rats was only 2 mcg/ml (FIG. 4); in dogs, peak whole blood concentrations were less than 3 mcg/ml (FIG. 5).

[7] = cited from earlier work
[8] = in vivo, po; cited from earlier work
[9] = tested on: Eosinophil; test: Eosinophil total superoxide production (FIG. 3); type: cell-based
Excerpt: FIG. 3 graphically depicts the effect of HCQ on Eosinophil total Superoxide production. In FIG. 3, nil refers to control, i.e., the absence of HCQ; PMA refers to phorbol myristic acetate; PAF refers to platelet activating factor, and SE refers to standard error of the mean. The data in FIG. 3 are presented as means±SE; n=3. The * indicates p<0.05; ** indicates p<0.01.
Anti-malarial agents also block the secondary aspects of rhinovirus infections. Without wishing to be bound, it is believed that they are inhibit by blocking the secondary events of viral infections.

[10] = tested on: antigen-induced early (EAR) and late airway responses (LAR) and airway hyperresponsiveness (AHR); conditions: aerosolized; total dose of only 10 mg/d; cited from earlier work
[11] = tested on: asthma; conditions: oral; cited from earlier work
[12] = tested on: IP-10 and RANTES; test: HCQ preincubation of BEAS-2B epithelial cells exposed to HRV-16, assayed for IP-10 and RANTES; type: cell-based, human; conditions: for IP-10: 6 hours preincubation / IP-10: 24 hours preincubation / RANTES: 6 hours preincubation: BEAS-2B
Method: FIG. 2 depicts graphically the effect of varying concentrations of HCQ preincubation on the elaboration of […] and RANTES in BEAS-2B epithelial cells exposed to human rhinovirus-16.
as §1
(§3) For example, treatment with hydroxychloroquine blocks the elaboration of the pro-inflammatory chemokines, IP-10 and RANTES from both primary tonsillar and immortalized epithelial cell lines (Table 1 & 2, FIG. 1 & 2). Since these chemokines figure prominently in generation of inflammatory responses and symptoms, this effect has important therapeutic implications.

[13] = parameters: species or system dogs; conditions: dog, in vivo, iv
Excerpt: FIG. 5 graphically depicts the mean whole blood concentration of HCQ following single day intravenous doses to male and female dogs.
as §2

[14] = tested on: IP-10/RANTES; test: Effect of HCQ on IP-10/RANTES production in primary human epithelial cells with exposure to HRV-16; type: cell-based
Excerpt: FIG. 1 graphically depicts the effect of 50 μm HCQ in the elaboration of IP-10 and RANTES in primary human epithelial cells with exposure to human rhinovirus type 16.
as §1, §3

[15] = parameters: species or system rats; conditions: rat, in vivo, iv, 10 mg/kg
Excerpt: FIG. 4 graphically depicts the mean whole blood concentration of HCQ following single day intravenous doses to male and female rats.
as §2

Compound: Cl.N [ammonium chloride]
- cellular infection by adenovirus [1]: block cellular infection
- infection of human corona virus [2]: block infection
- cellular infection by influenza viruses [3]: block cellular infection

Compound: CO/C1=C\C(C)=C\[C@@H](C)[C@@H](O)[C@@H](C)C/C(C)=C/C=C/[C@H](OC)[C@@H]([C@@H](C)[C@@H](O)[C@H](C)[C@@]2(O)C[C@@H](O)[C@H](C)[C@@H](C(C)C)O2)OC1=O [bafilomycin A1]
- expression of ICAM-1 [4]: reduces expression
- infection by rhinovirus [5]: inhibit infection
- cellular infection by adenovirus [1]: block cellular infection
- infection of human corona virus [2]: block infection
- cellular infection by influenza viruses [3]: block cellular infection

Compound: CCN(CC)CCCC(C)Nc1ccnc2cc(Cl)ccc12 (stereo not shown) [chloroquine]
- rhinovirus infection of epithelial cells [6]: block rhinovirus infection
- cellular infection by adenovirus [1]: block cellular infection
- cellular infection by influenza viruses [3]: block cellular infection

Compound: CCN(CCO)CCCC(C)Nc1ccnc2cc(Cl)ccc12 (stereo not shown) [hydroxychloroquine sulfate]
- solubility in water [7]: readily soluble in water

Compound: hydroxychloroquine [HCQ]
- serum levels [8]: 1400 to 1500 nM
- concentration at which IL-5 or PAF induced eosinophil superoxide is inhibited [9]: at least 0.5 mM
- concentration at which IL-5 or PAF induced eosinophil superoxide is inhibited ([9]; conversion of the mM value): about 200 mcg/ml
- effect in asthmatic sheep [10]: therapeutic effects
- time of treatment after which therapeutic effect begins [11]: > 22 weeks
- IP-10: 6 hours preincubation ([12]; HRV-16 + 0.01 μM HCQ): 3084 pg/mL
- IP-10: 24 hours preincubation ([12]; HRV-16 + 0.01 μM HCQ): 2506 pg/mL
- RANTES: 6 hours preincubation ([12]; HRV-16 + 0.01 μM HCQ): 3326 pg/mL
- IP-10: 6 hours preincubation ([12]; HRV-16 + 0.1 μM HCQ): 2914 pg/mL
- IP-10: 24 hours preincubation ([12]; HRV-16 + 0.1 μM HCQ): 1814 pg/mL
- RANTES: 6 hours preincubation ([12]; HRV-16 + 0.1 μM HCQ): 3128 pg/mL
- IP-10: 6 hours preincubation ([12]; HRV-16 + 1 μM HCQ): 3045 pg/mL
- IP-10: 24 hours preincubation ([12]; HRV-16 + 1 μM HCQ): 2098 pg/mL
- RANTES: 6 hours preincubation ([12]; HRV-16 + 1 μM HCQ): 1994 pg/mL
- IP-10: 6 hours preincubation ([12]; HRV-16 + 50 μM HCQ): 31 pg/mL
- IP-10: 24 hours preincubation ([12]; HRV-16 + 50 μM HCQ): 31 pg/mL
- RANTES: 6 hours preincubation ([12]; HRV-16 + 50 μM HCQ): 0 pg/mL
- release of pro-inflammatory CXC chemokines ([12]; pre-incubation of immortalized epithelial cells (BEAS-2B)): has the same effect
- rhinovirus infection of epithelial cells [6]: block rhinovirus infection
- peak whole blood concentrations [13]: less than 3 mcg/ml
- IP-10: hours of preincubation 24 ([14]; HRV-16 + 50 microM HCQ, 24 hours of preincubation, primary human epithelial cells): 31 pg/mL
- IP-10: hours of preincubation 48 ([14]; HRV-16 + 50 microM HCQ, 48 hours of preincubation, primary human epithelial cells): 112 pg/mL
- RANTES: hours of preincubation 48 ([14]; HRV-16 + HCQ, 48 hours of preincubation, primary human epithelial cells): 509 pg/mL
- release of pro-inflammatory CXC chemokines ([14]; primary epithelial cells treated, then infected with RV): do not release
- peak serum concentrations [15]: 2 µg/mL
